Measurements from patent US12043613B2, “Inhibitors of SARM1” (Disarm Therapeutics, Inc., priority 2020, dated 2024).

Biological target: T1, SARM1 (ARM-SAM-TIR, full length SARM1) (Homo sapiens, UniProt Q6SZW1)
T1 sequence (Q6SZW1 with tags, fused parts or gaps): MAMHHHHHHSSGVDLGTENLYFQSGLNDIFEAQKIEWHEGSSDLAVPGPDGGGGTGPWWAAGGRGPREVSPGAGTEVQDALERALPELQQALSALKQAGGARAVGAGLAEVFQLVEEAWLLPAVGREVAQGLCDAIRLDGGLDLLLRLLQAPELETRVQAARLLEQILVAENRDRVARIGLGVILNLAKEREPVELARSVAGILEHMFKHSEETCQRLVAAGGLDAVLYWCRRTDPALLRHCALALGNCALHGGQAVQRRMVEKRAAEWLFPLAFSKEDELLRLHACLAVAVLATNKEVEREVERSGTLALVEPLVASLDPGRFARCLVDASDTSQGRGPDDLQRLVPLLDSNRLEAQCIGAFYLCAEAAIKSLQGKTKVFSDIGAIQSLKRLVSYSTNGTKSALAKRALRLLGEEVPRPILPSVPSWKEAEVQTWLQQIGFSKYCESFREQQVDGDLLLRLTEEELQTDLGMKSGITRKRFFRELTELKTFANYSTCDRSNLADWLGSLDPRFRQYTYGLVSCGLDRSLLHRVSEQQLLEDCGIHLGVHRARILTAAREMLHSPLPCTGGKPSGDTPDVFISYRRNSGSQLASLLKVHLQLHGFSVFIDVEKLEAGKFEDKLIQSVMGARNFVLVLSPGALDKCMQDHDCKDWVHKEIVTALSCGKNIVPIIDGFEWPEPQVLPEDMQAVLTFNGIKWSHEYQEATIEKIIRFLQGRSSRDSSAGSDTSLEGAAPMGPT
Assay: biochemical
Conditions: SARM1 IC50 (nM), ARM-SAM-TIR lysate 5 μg/mL from NRK1-HEK293T cells, 2 h pre-incubation, 5 uM NAD+, 2 hr room temperature
Experimental: This assay makes use of full length SARM1, which encompasses the ARM, SAM and TIR domains.
Preparation of ARM-SAM-TIR lysate (STL)
NRK1-HEK293T cells were seeded onto 150 cm^2 plates at 20×10^6 cells per plate. The next day, the cells were transfected with 15 g ARM-SAM-TIR expression plasmid, SEQ ID NO: 1.
The cultures were supplemented with 1 mM NR at time of transfection to minimize toxicity from ARM-SAM-TIR overexpression. Forty-eight hours after transfection, cells were harvested, pelleted by centrifugation at 1,000 rpm (Sorvall ST 16R centrifuge, Thermo Fisher), and washed once with cold PBS (0.01 M phosphate buffered saline NaCl 0.138 M; KCl 0.0027 M; pH 7.4). The cells were resuspended in PBS with protease inhibitors (cOmplete™ protease inhibitor cocktail, Roche product #11873580001) and cell lysates were prepared by sonication (Branson Sonifer 450, output=3, 20 episodes of stroke). The lysates were centrifuged (12,000×g for 10 min at 4° C.) to remove cell debris and the supernatants (containing ARM-SAM-TIR protein) were stored at −80° C. for later use in the in vitro ARM-SAM-TIR NADase assay (see below). Protein concentration was determined by the Bicinchoninic (BCA) method and used to normalize lysate concentrations.
ARM-SAM-TIR IC50 assay of Formula I compounds.
The enzymatic assay was performed in a 384-well polypropylene plate in Dulbecco's PBS buffer in a final assay volume of 20 μL. ARM-SAM-TIR lysate with a final concentration of 5 μg/mL was pre-incubated with the respective compound at 1% DMSO final assay concentration over 2h at room temperature. The reaction was initiated by addition of 5 uM final assay concentration of NAD+ as substrate. After a 2 hr room temperature incubation, the reaction was terminated with 40 μL of stop solution of 7.5% trichloroactetic acid in acetonitrile. The NAD+ and ADPR concentrations were analyzed by a RapidFire High Throughput Mass Spectrometry System (Agilent Technologies, Santa Clara, Calif.) using an API4000 triple quadrupole mass spectrometer (AB Sciex Framingham, Mass.).

| Structure (SMILES) | IC50 |
| --- | --- |
| O=C1C(Cc2cnc(Cl)c(F)c2)CCN1c1cc(-c2ccncc2)n[nH]1 (centres unmarked) [Compound I-65] | < 50 nM |
| O=C1C(Cc2ccc(F)nc2)CCCN1c1[nH]nc(-c2ccncc2)c1Cl (centres unmarked) [Compound I-28] | > 1000 nM |
| O=C1C(Cc2cnc(Cl)c(F)c2)CCCN1c1cc(-c2ccncc2)n[nH]1 (centres unmarked) [Compound I-66] | < 50 nM |
| O=C1C(Cc2cnc(Cl)c(F)c2)CCN1c1nnc(-c2ccncc2)[nH]1 (centres unmarked) [Compound I-18] | 51 to 100 nM |
| O=C1[C@@H](Cc2ccc(Cl)cc2)NCCN1c1cc(-c2ccncc2)n[nH]1 [Compound I-1-b] | > 1000 nM |
| O=C1C(Cc2ccc(F)nc2)CCN1c1[nH]nc(-c2ccncc2)c1F (single isomer, unassigned) [I-33* (peak 2)] | < 50 nM |
| O=C1C(Cc2ccc(F)cc2)CCN1c1nnc(-c2ccncc2)[nH]1 (single isomer, unassigned) [I-7* (peak 2)] | < 50 nM |
| N#Cc1c(-c2ccncc2)n[nH]c1N1CCCC(Cc2ccc(Cl)cc2)C1=O (centres unmarked) [Compound I-56] | 101 to 500 nM |
| CC1(Cc2ccc(Cl)cc2)CCCN(c2nc(-c3ccncc3)n[nH]2)C1=O (centres unmarked) [Compound I-54] | 101 to 500 nM |
| O=C1N(c2nc(-c3ccncc3)n[nH]2)CCC1(F)Cc1ccc(Cl)nc1 (single isomer, unassigned) [I-42* (peak 1)] | > 1000 nM |
| O=C1C(Cc2cnc(Cl)c(F)c2)CCCN1c1cc(-c2ccncc2)n[nH]1 (single isomer, unassigned) [I-66* (peak 1)] | < 50 nM |
| CN1CCN(c2cc(-c3ccncc3)n[nH]2)C(=O)[C@@H]1Cc1ccc(Cl)cc1 [Compound I-2-a] | > 1000 nM |
| N#Cc1ccc(CC2CCN(c3cc(-c4ccncc4)n[nH]3)C2=O)cc1F (centres unmarked) [Compound I-37] | 51 to 100 nM |
| N[C@H]1CC(Cc2ccc(Cl)nc2)C(=O)N(c2cc(-c3ccncc3)n[nH]2)C1 (some centres unmarked) [Compound I-60] | 501 to 1000 nM |
| CC1(Cc2ccc(Cl)cc2)CCCN(c2nc(-c3ccncc3)n[nH]2)C1=O (single isomer, unassigned) [I-54* (peak 2)] | 101 to 500 nM |
| O=C1C(Cc2ccc(Cl)nc2)CCN1c1[nH]nc(-c2ccncc2)c1Cl (centres unmarked) [Compound I-34] | < 50 nM |
| O=C1C(Cc2ccc(F)nc2)CCN1c1[nH]nc(-c2ccncc2)c1Cl (centres unmarked) [Compound I-32] | < 50 nM |
| O=C1C(Cc2ccc(Cl)nc2)CCCN1c1[nH]nc(-c2ccncc2)c1Cl (centres unmarked) [Compound I-29] | > 1000 nM |
| O=C1C(Cc2ccc(Cl)cc2)OCCN1c1cc(-c2ccncc2)n[nH]1 (centres unmarked) [Compound I-47] | 51 to 100 nM |
| N#Cc1ccc(CC2CCN(c3[nH]nc(-c4ccncc4)c3F)C2=O)cc1F (single isomer, unassigned) [I-25* (peak 1)] | 101 to 500 nM |
| O=C1C(Cc2ccc(C(F)(F)F)nc2)CCCN1c1nc(-c2ccncc2)n[nH]1 (centres unmarked) [Compound I-97] | 101 to 500 nM |
| O=C1C(Cc2ccc(Cl)nc2)CNCN1c1cc(-c2ccncc2)n[nH]1 (centres unmarked) [Compound I-64] | > 1000 nM |
| N#Cc1cc(CC2CCCN(c3nc(-c4ccncc4)n[nH]3)C2=O)ccc1F (centres unmarked) [Compound I-101] | 101 to 500 nM |
| O=C1C(Cc2ccc(Cl)c(F)c2)CCN1c1cc(-c2ccncc2)n[nH]1 (centres unmarked) [Compound I-14] | < 50 nM |
| O=C1C(Cc2ccc(F)nc2)CCN1c1[nH]nc(-c2ccncc2)c1Cl (single isomer, unassigned) [I-32* (peak 2)] | < 50 nM |
| O=C1C(Cc2ccc(F)nc2)CCN1c1cc(-c2ccncc2)n[nH]1 (single isomer, unassigned) [I-67* (peak 1)] | 51 to 100 nM |
| O=C1C(Cc2ccc(Cl)cc2)CCCN1c1nnc(-c2ccncc2)[nH]1 (single isomer, unassigned) [I-5* (peak 1)] | < 50 nM |

| Structure (SMILES) | IC50 |
| --- | --- |
| N#Cc1cc(CC2CCCN(c3cc(-c4ccncc4)n[nH]3)C2=O)ccc1F (centres unmarked) [Compound I-100] | < 50 nM |
| CC1(Cc2ccc(Cl)nc2)CCCN(c2nnc(-c3ccncc3)[nH]2)C1=O (centres unmarked) [Compound I-63] | 501 to 1000 nM |
| O=C1C(Cc2ccc(F)nc2)CCN1c1[nH]nc(-c2ccncc2)c1Cl (single isomer, unassigned) [I-32* (peak 1)] | 51 to 100 nM |
| O=C1C(Cc2ccc(Cl)cc2)CCCN1c1cc(-c2ccncc2)n[nH]1 (single isomer, unassigned) [I-19* (peak 1)] | < 50 nM |
| [2H]C([2H])(c1ccc(Cl)nc1)C1([2H])C(=O)N(c2cc(-c3ccncc3)n[nH]2)C([2H])([2H])C([2H])([2H])C1([2H])[2H] (single isomer, unassigned) [I-79* (peak 1)] | < 50 nM |
| O=C1C(Cc2ccc(F)nc2)CCN1c1nnc(-c2ccncc2)[nH]1 (centres unmarked) [Compound I-39] | 101 to 500 nM |
| O=C1C(Cc2ccc(Cl)nc2)CCCN1c1cc(-c2ccncc2)n[nH]1 (single isomer, unassigned) [I-21* (peak 1)] | 101 to 500 nM |
| Cc1c(-c2ccncc2)n[nH]c1N1CCC(Cc2ccc(F)c(F)c2)C1=O (centres unmarked) [Compound I-49] | 51 to 100 nM |
| O=C1C(Cc2ccc(F)nc2)CCN1c1[nH]nc(-c2ccncc2)c1F (single isomer, unassigned) [I-33* (peak 1)] | 51 to 100 nM |
| O=C1C(Cc2ccc(F)cc2)CCN1c1nnc(-c2ccncc2)[nH]1 (centres unmarked) [Compound I-7] | 101 to 500 nM |
| N#Cc1ccc(CC2CCN(c3cc(-c4ccncc4)n[nH]3)C2=O)cc1 (centres unmarked) [Compound I-114] | 101 to 500 nM |
| Cc1c(-c2ccncc2)n[nH]c1N1CCC(Cc2ccc(F)c(F)c2)C1=O (single isomer, unassigned) [I-49* (peak 1)] | 101 to 500 nM |
| O=C1C(Cc2cnc(Cl)c(F)c2)CCN1c1cc(-c2ccncc2)n[nH]1 (single isomer, unassigned) [I-65* (peak 1)] | < 50 nM |
| N#Cc1ccc(CC2CCN(c3nnc(-c4ccncc4)[nH]3)C2=O)cc1F (centres unmarked) [Compound I-26] | 101 to 500 nM |
| O=C1C(Cc2ccc(Cl)nc2)NCN1c1cc(-c2ccncc2)n[nH]1 (centres unmarked) [Compound I-35] | 501 to 1000 nM |
| Cc1c(-c2ccncc2)n[nH]c1N1CCCC(Cc2ccc(Cl)cc2)C1=O (centres unmarked) [Compound I-50] | > 1000 nM |
| O=C1C(Cc2ccc(Cl)nc2)CCN1c1nnc(-c2ccncc2)[nH]1 (centres unmarked) [Compound I-9] | 101 to 500 nM |
| O=C1C(Cc2cnc(Cl)c(F)c2)CCCN1c1cc(-c2ccncc2)n[nH]1 (single isomer, unassigned) [I-66* (peak 2)] | 101 to 500 nM |
| O=C1C(Cc2ccc(F)nc2)CCCN1c1[nH]nc(-c2ccncc2)c1F (centres unmarked) [Compound I-27] | 101 to 500 nM |
| O=C1C(Cc2ccc(Cl)nc2)CCN1c1nnc(-c2ccncc2)[nH]1 (single isomer, unassigned) [I-9* (peak 1)] | 101 to 500 nM |
| O=C1C(Cc2ccc(Cl)nc2)CCN1c1nnc(-c2ccncc2)[nH]1 (single isomer, unassigned) [I-9* (peak 2)] | 51 to 100 nM |
| O=C1C(Cc2ccc(Cl)c(F)c2)CCCN1c1cc(-c2ccncc2)n[nH]1 (single isomer, unassigned) [I-20* (peak 1)] | < 50 nM |
| O=C1C(Cc2ccc(Cl)cc2)CCN1c1nnc(-c2ccncc2)[nH]1 (centres unmarked) [Compound I-4] | < 50 nM |
| CC1(Cc2ccc(Cl)cc2)CCCN(c2nc(-c3ccncc3)n[nH]2)C1=O (single isomer, unassigned) [I-54* (peak 1)] | 501 to 1000 nM |
| O=C1C(Cc2ccc(Cl)nc2)CCCCN1c1cc(-c2ccncc2)n[nH]1 (single isomer, unassigned) [I-40* (peak 2)] | 101 to 500 nM |
| O=C1C(Cc2ccc(Cl)c(F)c2)CCN1c1nnc(-c2ccncc2)[nH]1 (centres unmarked) [Compound I-8] | < 50 nM |
